Test results reported in US20240026268A1, “MICROFLUIDIC HANGING DROP CULTURE DEVICE FOR CULTURING CELL AGGREGATE” (CELLARTGEN INC., priority 2021, published 2024).

Legend:
[1] = test system: human iPSC-derived nonalcoholic steatohepatitis organoids; assay: ROS quantitative analysis by CM-H2DCFDA staining of NASH organoids in 100-well HD chip; type: cell-based; conditions: NASH+Eze versus NASH organoid
Description: To check the accumulation of reactive oxygen species (ROS) caused by oxidative stress in Normal, NASH and NASH+Eze human iPSC-derived liver organoids (HEMKS) fabricated in the high-throughput 100-well HD chip by the same culture method as described above, ROS activity and quantitative analysis between the groups was performed by CM-H2DCFDA staining, which is oxidative stress detection assay.
The high-throughput HD chip was designed and fabricated with the same dimensions as a commercially available conventional 384-well plate.

[2] = test system: human iPSC-derived nonalcoholic steatohepatitis organoids; assay: Effective drug test on human iPSC-derived nonalcoholic steatohepatitis organoids (HEMKS) in 100-well HD chip: qPCR, immunostaining, BODIPY; type: cell-based; conditions: oleic acid 500 μM + ezetimibe 50 μM for 2 days
Description: Human iPSC-derived liver organoids (HEMKS) were fabricated in the high-throughput 100-well HD chip. Then, a normal group was cultured in a normal culture medium for 7 days, whereas a nonalcoholic steatohepatitis (NASH) group was normally cultured for 5 days and then further cultured for 2 days in the culture medium mixed with 500 μM oleic acid, a free fatty acid, to induce steatohepatitis. Ezetimibe (Eze), an effective drug for treatment of fatty liver, is a drug candidate group that serves as a cholesterol absorption inhibitor and is conventionally used to treat high blood cholesterol and lipid abnormalities. After 5 days of normal culture, oleic acid (500 μM) and ezetimibe (50 μM) were mixed in the culture medium, followed by additional culture for 2 days to test the drug for steatohepatitis. After a total of 7 days of culture, the degree of fat accumulation was compared and the maker expression and gene expression were compared between groups by immunostaining and quantitative PCR analysis. For more accurate steatohepatitis modeling and drug screening, liver organoids containing immune cells (Kupffer cells) and mesenchymal cells (hepatic stellate cells) constituting a liver tissue microenvironment were fabricated. To this end, human iPSC-derived liver organoids were fabricated at a ratio of iPSC hepatic cells (H): vascular endothelial cells (E): mesenchymal stem cells (M): iPSC-derived Kupffer cells (K): iPSC-derived hepatic stellate cells (S)=10:7:2:2:1 (HEMKS).

[3] = quantitative PCR, versus NASH group

`O=C1[C@H](CC[C@H](O)c2ccc(F)cc2)[C@@H](c2ccc(O)cc2)N1c1ccc(F)cc1` [Eze, Ezetimibe] was tested, and the “oxidative stress caused by ROS” value ([1]; CM-H2DCFDA staining, imaging) was “decreased to a certain level or less”, the “fluorescence intensity (ROS oxidative stress)” value ([1]; on-chip analysis with plate reader) was “decreased” and the “expression level of ALB, a hepatic differentiation marker” value ([2]; immunostaining, versus NASH organoid) was “recovered to a certain level”. For the same compound, the “fatty acid accumulation (BODIPY fluorescence signal labeling lipid)” value ([2]; versus NASH organoid) was “decreased”, the “expression level of PLIN2, a fatty acid accumulation marker” value [2, 3] was “decreased” and the “expression level of SMA, liver fibrosis marker” value [2, 3] was “decreased”. For the same compound, the “expression level of TNF-α, an inflammation marker” value [2, 3] was “decreased” and the “expression level of VIM, liver fibrosis marker” value [2, 3] was “decreased”.
